Laboratory results published in patent US6833456B2, “Indolyl-urea derivatives of thienopyridines useful as antiangiogenic agents, and methods for their use” (Agouron Pharmaceuticals, Inc., priority 2002, dated 2004).
Values joined by “and” are separate entries in the source; they are usually repeats but may differ in a detail not shown here. Equal values may be shown once.

Key:
KDR (VEGFR2) = molecular target: T1, KDR (VEGFR2) (Homo sapiens, UniProt P35968); assay: KDR (VEGFR2) phosphorylation in PAE-KDR cells assay; format: cell-based; conditions: PAE cells overexpressing human KDR, VEGF stimulated; read-out: PAE KDR autophos IC50
T1 construct: expressed in transfected cells; host or cells: porcine aorta endothelial (PAE) cells
T1 sequence (P35968 20-1356): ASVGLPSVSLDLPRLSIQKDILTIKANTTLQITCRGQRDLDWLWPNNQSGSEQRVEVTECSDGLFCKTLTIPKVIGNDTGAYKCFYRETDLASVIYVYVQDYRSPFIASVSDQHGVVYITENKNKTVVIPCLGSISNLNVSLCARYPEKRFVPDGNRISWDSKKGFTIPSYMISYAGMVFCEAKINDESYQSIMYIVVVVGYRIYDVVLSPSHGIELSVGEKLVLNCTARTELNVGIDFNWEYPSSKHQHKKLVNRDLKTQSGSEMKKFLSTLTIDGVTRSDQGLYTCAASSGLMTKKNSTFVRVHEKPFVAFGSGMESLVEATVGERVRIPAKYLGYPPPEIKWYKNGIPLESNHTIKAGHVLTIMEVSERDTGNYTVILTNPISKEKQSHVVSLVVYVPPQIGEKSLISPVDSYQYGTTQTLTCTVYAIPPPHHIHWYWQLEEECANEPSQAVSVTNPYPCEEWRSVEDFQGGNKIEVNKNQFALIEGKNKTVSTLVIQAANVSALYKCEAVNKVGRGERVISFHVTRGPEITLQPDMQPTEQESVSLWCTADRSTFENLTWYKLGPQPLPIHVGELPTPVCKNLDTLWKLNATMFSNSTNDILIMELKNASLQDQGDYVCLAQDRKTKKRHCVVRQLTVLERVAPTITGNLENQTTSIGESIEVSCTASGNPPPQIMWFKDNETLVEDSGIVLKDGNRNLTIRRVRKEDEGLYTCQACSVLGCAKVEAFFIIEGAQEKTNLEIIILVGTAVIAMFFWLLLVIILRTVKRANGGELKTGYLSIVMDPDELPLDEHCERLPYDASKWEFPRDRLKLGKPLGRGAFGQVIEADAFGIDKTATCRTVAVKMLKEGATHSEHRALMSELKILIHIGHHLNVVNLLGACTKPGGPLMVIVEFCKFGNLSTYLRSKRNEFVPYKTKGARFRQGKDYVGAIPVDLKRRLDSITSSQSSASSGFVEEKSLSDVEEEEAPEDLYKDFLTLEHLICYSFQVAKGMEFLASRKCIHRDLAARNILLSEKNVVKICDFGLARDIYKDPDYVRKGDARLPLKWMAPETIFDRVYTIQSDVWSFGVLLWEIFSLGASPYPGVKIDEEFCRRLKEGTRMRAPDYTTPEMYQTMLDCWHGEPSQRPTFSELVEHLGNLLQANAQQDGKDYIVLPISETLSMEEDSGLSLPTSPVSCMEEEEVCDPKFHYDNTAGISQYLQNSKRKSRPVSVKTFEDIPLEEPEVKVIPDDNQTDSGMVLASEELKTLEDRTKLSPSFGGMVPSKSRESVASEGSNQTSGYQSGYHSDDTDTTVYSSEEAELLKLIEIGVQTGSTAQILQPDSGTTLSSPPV
How it was run: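 PAE cells overexpressing human KDR, serum-starved 16 h (0.1% FBS), treated with compound 1 h at 37° C (0.5% DMSO), then stimulated 8 min with 500 ng/ml VEGF plus 2 mM Na3VO4. Lysate KDR phosphotyrosine measured by capture ELISA (anti-pY HRP, 450 nm); IC50 by four-parameter fit.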

Mouse PK assay = format: in vivo, B6 female mice; conditions: for AUC / Cmax: female, B6, mouse, plasma; for AUC / Cmax / Mouse Cmin, po: po; for Cmax: read-out: Mouse Cmax, po ng-h/mL
How it was run: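 Plasma levels were measured by HPLC with UV detection after acetonitrile precipitation, using extracted standards, in blood taken up to 4 h (0.5, 1, 2, 4 h) post-dose. Dosing: 50 mg/kg orally or intraperitoneally to two groups of four female B6 mice, vehicle PEG 400:acidified H2O 30:70 suspension.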

PDGFRβ = molecular target: T2, PDGFRβ (Homo sapiens, UniProt P09619); assay: PAE-PDGFRβ phosphorylation in PAE-PDGFRB cells assay; format: cell-based; conditions: PAE cells overexpressing human PDGFRβ, PDGF-BB stimulated; read-out: PAE PDGFR autophos IC50
T2 construct: expressed in transfected cells; host or cells: porcine aorta endothelial (PAE) cells
T2 sequence (P09619 33-1106): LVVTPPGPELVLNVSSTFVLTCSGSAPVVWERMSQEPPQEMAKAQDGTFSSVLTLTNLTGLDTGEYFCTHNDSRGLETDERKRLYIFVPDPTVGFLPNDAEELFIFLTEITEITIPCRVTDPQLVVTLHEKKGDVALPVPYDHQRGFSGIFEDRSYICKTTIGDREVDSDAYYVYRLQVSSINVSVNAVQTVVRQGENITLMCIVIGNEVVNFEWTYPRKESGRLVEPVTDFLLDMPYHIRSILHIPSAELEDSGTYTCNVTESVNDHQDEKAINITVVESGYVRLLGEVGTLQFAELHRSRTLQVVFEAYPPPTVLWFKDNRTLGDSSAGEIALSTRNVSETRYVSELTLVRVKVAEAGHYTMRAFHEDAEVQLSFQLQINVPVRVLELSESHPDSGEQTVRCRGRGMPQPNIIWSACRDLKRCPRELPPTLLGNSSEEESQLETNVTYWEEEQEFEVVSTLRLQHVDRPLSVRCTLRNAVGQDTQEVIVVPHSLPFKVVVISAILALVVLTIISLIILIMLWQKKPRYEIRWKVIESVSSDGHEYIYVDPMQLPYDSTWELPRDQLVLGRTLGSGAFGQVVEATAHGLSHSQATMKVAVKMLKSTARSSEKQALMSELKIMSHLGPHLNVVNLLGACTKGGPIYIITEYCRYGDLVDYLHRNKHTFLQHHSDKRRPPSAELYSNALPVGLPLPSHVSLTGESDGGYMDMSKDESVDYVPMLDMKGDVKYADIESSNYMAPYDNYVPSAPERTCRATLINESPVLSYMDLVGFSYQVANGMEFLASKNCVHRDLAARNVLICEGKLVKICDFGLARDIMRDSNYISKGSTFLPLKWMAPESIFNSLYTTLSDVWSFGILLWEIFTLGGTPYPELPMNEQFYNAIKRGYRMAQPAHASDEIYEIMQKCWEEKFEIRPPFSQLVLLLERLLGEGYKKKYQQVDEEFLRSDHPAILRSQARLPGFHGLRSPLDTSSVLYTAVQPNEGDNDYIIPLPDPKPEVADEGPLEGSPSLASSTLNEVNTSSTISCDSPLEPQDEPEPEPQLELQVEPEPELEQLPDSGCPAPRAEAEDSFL
How it was run: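 PAE cells overexpressing human PDGFRβ, serum-starved 16 h (0.1% FBS), compound 1 h at 37° C (0.5% DMSO), then 1 μg/mL PDGF-BB with 2 mM Na3VO4 for 8 min. Receptor captured by anti-PDGFRβ, phosphotyrosine detected by HRP-PY20/TMB at 450 nm; IC50 by four-parameter fit.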

HUVEC = assay: bFGF HUVEC proliferation; format: cell-based, human; conditions: bFGF stimulated HUVEC

Compound: CNC(=O)n1c(C)cc2cc(Nc3ccnc4cc(C(=O)N5CCC[C@@H]5CO)sc34)ccc21 [Example 1a, 5-[2-(2R-Hydroxymethyl-pyrrolidine-1-carbonyl)-thieno[3,2-b]pyridin-7-ylamino]-2-methyl-indole-1-carboxylic acid methylamide]
- IC50 (KDR (VEGFR2)): 1.06 nM
- AUC (Mouse PK assay; 50 mg/kg): 1020 ng·h/mL
- Cmax (Mouse PK assay; 50 mg/kg, p.o., 50 mg/kg): 526 ng/mL
- Mouse Cmin, po (Mouse PK assay): 3 ng/mL
- IC50 (PDGFRβ): 239 nM
- IC50 (HUVEC; Homo sapiens, HUVEC): 59 nM

Compound: CNC(=O)n1c(C)cc2cc(Nc3ccnc4cc(C(=O)N5CCC[C@@H]5COC)sc34)ccc21 [Example 1b, 5-[2-(2R-Methoxymethyl-pyrrolidine-1-carbonyl)-thieno[3,2-b]pyridin-7-ylamino]-2-methyl-indole-1-carboxylic acid methylamide]
- IC50 (KDR (VEGFR2)): 0.28 nM and 0.25 nM
- AUC (Mouse PK assay; 50 mg/kg): 78 ng·h/mL
- Cmax (Mouse PK assay; 50 mg/kg, p.o., 50 mg/kg): 24 ng/mL
- Mouse Cmin, po (Mouse PK assay): 5 ng/mL
- IC50 (PDGFRβ): 73 nM and 86 nM
- IC50 (HUVEC; Homo sapiens, HUVEC): 80 nM

Compound: COC[C@H]1CCCN1C(=O)c1cc2nccc(Nc3ccc4c(c3)cc(C)n4C(=O)NC3CC3)c2s1 [Example 1d, 5-[2-(2R-Methoxymethyl-pyrrolidine-1-carbonyl)-thieno[3,2-b]pyridin-7-ylamino]-2-methyl-indole-1-carboxylic acid cyclopropylamide]
- IC50 (KDR (VEGFR2)): 0.45 nM and 0.51 nM
- AUC (Mouse PK assay; 50 mg/kg): 5070 ng·h/mL
- Cmax (Mouse PK assay; 50 mg/kg, p.o., 50 mg/kg): 2820 ng/mL
- Mouse Cmin, po (Mouse PK assay): 32 ng/mL
- IC50 (PDGFRβ): 42 nM and 45 nM and 74 nM
- IC50 (HUVEC; Homo sapiens, HUVEC): 24 nM
- IC50 (HUVEC): 23.4 nM

Compound: Cc1cc2cc(Nc3ccnc4cc(C(=O)N5CC[C@H](O)C5)sc34)ccc2n1C(=O)NC1CC1 [Example 1k, 5-[2-(3S-Hydroxy-pyrrolidine-1-carbonyl)-thieno[3,2-b]pyridin-7-ylamino]-2-methyl-indole-1-carboxylic acid cyclopropylamide]
- IC50 (KDR (VEGFR2)): 2.1 nM and 5.4 nM and 4.74 nM
- AUC (Mouse PK assay; 50 mg/kg): 18 ng·h/mL
- Cmax (Mouse PK assay; 50 mg/kg, p.o., 50 mg/kg): 8 ng/mL
- Mouse Cmin, po (Mouse PK assay): 0 ng/mL
- IC50 (PDGFRβ): > 1000 nM
- IC50 (HUVEC; Homo sapiens, HUVEC): 26.6 nM

Compound: CNC(=O)n1c(C)cc2cc(Nc3ccnc4cc(C(=O)N5CC[C@@H](OC)C5)sc34)ccc21 [Example 1l, 5-[2-(3R-Methoxy-pyrrolidine-1-carbonyl)-thieno[3,2-b]pyridin-7-ylamino]-2-methyl-indole-1-carboxylic acid methylamide]
- AUC (Mouse PK assay; 50 mg/kg): 719 ng·h/mL
- Cmax (Mouse PK assay; 50 mg/kg, p.o., 50 mg/kg): 504 ng/mL
- Mouse Cmin, po (Mouse PK assay): 5 ng/mL
- IC50 (PDGFRβ): 49 nM and 45 nM and 95 nM
- IC50 (HUVEC; Homo sapiens, HUVEC): 6.1 nM

Compound: CNC(=O)n1c(C)cc2cc(Nc3ccnc4cc(C(=O)N5CC[C@@H](O)C5)sc34)ccc21 [Example 1n, 5-[2-(3R-Hydroxy-pyrrolidine-1-carbonyl)-thieno[3,2-b]pyridin-7-ylamino]-2-methyl-indole-1-carboxylic acid methylamide]
- IC50 (KDR (VEGFR2)): 4.01 nM and 2.77 nM
- AUC (Mouse PK assay; 50 mg/kg): 12 ng·h/mL
- Cmax (Mouse PK assay; 50 mg/kg, p.o., 50 mg/kg): 8 ng/mL
- Mouse Cmin, po (Mouse PK assay): 0 ng/mL
- IC50 (PDGFRβ): > 1000 nM and 2600 nM
- IC50 (HUVEC; Homo sapiens, HUVEC): 30.2 nM
- IC50 (HUVEC): 19.4 nM

Compound: C#CCNC(=O)n1c(C)cc2cc(Nc3ccnc4cc(C(=O)N5CC[C@@H](O)C5)sc34)ccc21 [Example 1o, 5-[2-(3R-Hydroxy-pyrrolidine-1-carbonyl)-thieno[3,2-b]pyridin-7-ylamino]-2-methyl-indole-1-carboxylic acid prop-2-ynylamide]
- IC50 (KDR (VEGFR2)): 1.6 nM
- AUC (Mouse PK assay; 50 mg/kg): 219 ng·h/mL
- Cmax (Mouse PK assay; 50 mg/kg, p.o., 50 mg/kg): 100 ng/mL
- Mouse Cmin, po (Mouse PK assay): 6 ng/mL
- IC50 (PDGFRβ): 533 nM
- IC50 (HUVEC; Homo sapiens, HUVEC): 49.6 nM
- IC50 (HUVEC): 52 nM

Compound: COC[C@@H]1CCCN1C(=O)c1cc2nccc(Nc3ccc4c(c3)cc(C)n4C(=O)NC3CC3)c2s1 [Example 2c, 5-(2-[(S)-2-(methoxymethyl)pyrrolidine-1-carbonyl]thieno[3,2-b]pyridin-7-ylamino)-2-methylindole-1-carboxylic acid cyclopropylamide]
- IC50 (KDR (VEGFR2)): 0.67 nM and 0.42 nM (2×)
- AUC (Mouse PK assay; 50 mg/kg): 6700 ng·h/mL
- Cmax (Mouse PK assay; 50 mg/kg, p.o., 50 mg/kg): 3700 ng/mL
- Mouse Cmin, po (Mouse PK assay): 35 ng/mL
- IC50 (PDGFRβ): 84 nM and 105 nM and 87 nM
- IC50 (HUVEC; Homo sapiens, HUVEC): 41 nM
- IC50 (HUVEC): 27 nM and 33 nM and 24 nM and 40 nM

Compound: Cc1cc2cc(Nc3ccnc4cc(-c5nccn5C)sc34)ccc2n1C(=O)NC1CC1 [Example 2d, 5-(2-[1-methyl-1H-imidazol-2-yl]thieno[3,2-b]pyridin-7-ylamino)-2-methylindole-1-carboxylic acid cyclopropylamide]
- AUC (Mouse PK assay; 50 mg/kg): 457 ng·h/mL
- Cmax (Mouse PK assay; 50 mg/kg, p.o., 50 mg/kg): 411 ng/mL
- Mouse Cmin, po (Mouse PK assay): 0 ng/mL
- IC50 (PDGFRβ): 11 nM and 25 nM
- IC50 (HUVEC; Homo sapiens, HUVEC): 34 nM

Compound: Cc1cc2cc(Nc3ccnc4cc(C(=O)N5CCC[C@H]5CO)sc34)ccc2n1C(=O)NC1CC1 [Example 2e, 5-(2-[(S)-2-(hydroxymethyl)pyrrolidine-1-carbonyl]thieno[3,2-b]pyridin-7-ylamino)-2-methylindole-1-carboxylic acid cyclopropylamide]
- IC50 (KDR (VEGFR2)): 1.32 nM and 1.38 nM
- AUC (Mouse PK assay; 50 mg/kg): 43 ng·h/mL
- Cmax (Mouse PK assay; 50 mg/kg, p.o., 50 mg/kg): 28 ng/mL
- Mouse Cmin, po (Mouse PK assay): 0 ng/mL
- IC50 (PDGFRβ): > 1000 nM
- IC50 (HUVEC; Homo sapiens, HUVEC): 27.8 nM
- IC50 (HUVEC): 31.6 nM

Compound: CCOC(=O)c1csc(-c2cc3nccc(Nc4ccc5c(c4)cc(C)n5C(=O)NC)c3s2)n1 [Example 3c, 2-[7-(2-Methyl-1-methylcarbamoyl-1H-indol-5-ylamino)-thieno[3,2-b]pyridin-2-yl]-thiazole-4-carboxylic acid ethyl ester]
- IC50 (KDR (VEGFR2)): 0.1 nM and 0.041 nM
- Mouse Cmax, po ng/mL (Mouse PK assay; p.o., 50 mg/kg): 0 ng/mL
- Mouse Cmin, po (Mouse PK assay): 0 ng/mL
- IC50 (PDGFRβ): 631 nM
- IC50 (HUVEC; Homo sapiens, HUVEC): 184 nM
- IC50 (HUVEC): 262 nM

Compound: CNC(=O)n1c(C)cc2cc(Nc3cccc4cc(C(=O)N5C[C@H](OC)C[C@H]5CO)sc34)ccc21 [Example 3f, 5-[2-((2S,4R)-2-Hydroxymethyl-4-methoxy-pyrrolidine-1-carbonyl)-benzo[b]thiophen-7-ylamino]-2-methyl-indole-1-carboxylic acid methylamide]
- IC50 (KDR (VEGFR2)): 1.85 nM
- AUC (Mouse PK assay; 50 mg/kg): 44 ng·h/mL
- Cmax (Mouse PK assay; 50 mg/kg, p.o., 50 mg/kg): 24 ng/mL
- Mouse Cmin, po (Mouse PK assay): 2 ng/mL
- IC50 (PDGFRβ): > 1000 nM
- IC50 (HUVEC; Homo sapiens, HUVEC): 2050 nM

Compound: CO[C@@H]1C[C@@H](CO)N(C(=O)c2cc3cccc(Nc4ccc5c(c4)cc(C)n5C(=O)NC4CC4)c3s2)C1 [Example 3g, 5-[2-((2S,4R)-2-Hydroxymethyl-4-methoxy-pyrrolidine-1-carbonyl)-benzo[b]thiophen-7-ylamino]-2-methyl-indole-1-carboxylic acid cyclopropylamide]
- IC50 (KDR (VEGFR2)): 2.6 nM
- AUC (Mouse PK assay; 50 mg/kg): 46 ng·h/mL
- Cmax (Mouse PK assay; 50 mg/kg, p.o., 50 mg/kg): 19 ng/mL
- Mouse Cmin, po (Mouse PK assay): 2 ng/mL
- IC50 (PDGFRβ): > 1000 nM
- IC50 (HUVEC; Homo sapiens, HUVEC): 656 nM

Compound: CNC(=O)n1c(C)cc2cc(Oc3ccnc4cc(C(=O)N5C[C@H](OC)C[C@H]5CO)sc34)ccc21 [Example 3o, 5-[2-(2-Hydroxymethyl-4-methoxy-pyrrolidine-1-carbonyl)-thieno[3,2-b]pyridin-7-yloxy]-2-methyl-indole-1-carboxylic acid methylamide]
- IC50 (KDR (VEGFR2)): 0.43 nM and 0.52 nM
- AUC (Mouse PK assay; 50 mg/kg): 2880 ng·h/mL
- Cmax (Mouse PK assay; 50 mg/kg, p.o., 50 mg/kg): 2820 ng/mL
- Mouse Cmin, po (Mouse PK assay): 20 ng/mL
- IC50 (PDGFRβ): 599 nM and 126 nM
- IC50 (HUVEC; Homo sapiens, HUVEC): 246 nM

Compound: CNC(=O)n1c(C)cc2cc(Oc3ccnc4cc(C(=O)N5CCC[C@H]5COC)sc34)ccc21 [Example 4a, 5-(2-[(S)-2-(methoxymethyl)pyrrolidine-1-carbonyl]thieno[3,2-b]pyridin-7-yloxy)-2-methylindole-1-carboxylic acid methylamide]
- AUC (Mouse PK assay; 50 mg/kg): 703 ng·h/mL
- Cmax (Mouse PK assay; 50 mg/kg, p.o., 50 mg/kg): 575 ng/mL
- Mouse Cmin, po (Mouse PK assay): 3 ng/mL
- IC50 (PDGFRβ): 16.5 nM
- IC50 (HUVEC; Homo sapiens, HUVEC): 33 nM
- IC50 (HUVEC): 34 nM

Compound: CNC(=O)n1c(C)cc2cc(Oc3ccnc4cc(C(=O)N5CCC[C@@H]5COC)sc34)ccc21 [Example 4e, 5-[2-(2R-Methoxymethyl-pyrrolidine-1-carbonyl)-thieno[3,2-b]pyridin-7-yloxy]-2-methyl-indole-1-carboxylic acid methylamide]
- AUC (Mouse PK assay; 50 mg/kg): 5540 ng·h/mL
- Cmax (Mouse PK assay; 50 mg/kg, p.o., 50 mg/kg): 3790 ng/mL
- Mouse Cmin, po (Mouse PK assay): 23 ng/mL
- IC50 (PDGFRβ): 16.7 nM
- IC50 (HUVEC; Homo sapiens, HUVEC): 14 nM
